In patent US20160310389A1, “Low Viscosity Hair Care Composition” (The Procter & Gamble Company, priority 2015, published 2016):
Counter-ions that a name gives are not always drawn.

Key:
Format in all cases: physicochemical
[1] = Kinematic viscosity of surfactant base formulation with added agent (calibrated Cannon viscometers); settings: for Kinematic viscosity at 40 C., 2% oil: 2% agent in base formulation; for Kinematic viscosity at 40 C., 4% oil: 4% agent in base formulation; for Kinematic viscosity at 40 C., 6% oil: 6% agent in base formulation; for Kinematic viscosity at 40 C., 8% oil: 8% agent in base formulation; for Lowest viscosity achieved: kinematic viscosity at 40° C., lowest over 2%, 4%, 6%, 8% agent in base formulation (24% sodium undecyl sulfate, 6% lauramidopropyl betaine, 1.6% perfume)
Excerpt: Referring to Tables 1 and 2, the base formulations were made by mixing 1.6% perfume, 24% sodium undecyl sulfate (CAS#1072-24-8) active, 6% lauramidopropyl betaine (CAS#4292-10-8) active and 60.4% deionized water which leaves 8% unfilled for the addition of a viscosity reducing agent (the balance being filled in by distilled water). For all compositions, the surfactant, water and additives including viscosity reducing agents were expected to be in a single phase.
The agents from Tables 1 and 2 were added to the base formulation at a percentage of 2%, 4%, 6%, and 8% into the above surfactant solution. The subsequent formulations were vortexed and put into oven at 60° C. overnight to form homogeneous solution. The viscosities of the formulations were measured with calibrated viscometers (Size 200/350/450) from Cannon Instrument Company (2139 High Tech Road, State College, Pa., USA, 16803).
After the equilibration, the formulations were drawn to reach the starting mark with a rubber suction bulb and the flow time between the starting mark and end mark was recorded for calculation. Each formulation was measured three times to calculate average and standard deviation. Between samples, viscometer was cleaned with water and acetone to rinse off residual.
Viscosity values were calculated based on the equation:
Viscosity (mm^2/s (cSt))=Time (s)*Constant (mm^2/s^2·(cSt/s))
The time in the above equation is the flow time recorded in the experiment and the constant numbers for each calibrated viscometer were obtained from the manuals.

[2] = Shear viscosity of base formulation with additives (TA Instruments AR-G2 rheometer); settings: 5% single additive, 25 C, shear rate 1 s^-1
Excerpt: Now referring to Table 3, the base formulations were made by mixing 1.5 or 3.0% of perfume R, 24% sodium undecyl sulfate (CAS#1072-24-8) active, 6% Lauramidopropyl Betaine (CAS#4292-10-8) active, and 60.4% deionized water which leaves 8% unfilled for oil addition and level studies (the balance being filled in by distilled water).
The complete formulations were made by adding the respective percentage of the agents from Table 3 into the base formulation, and filling the rest with deionized water to make 100% finished sample. The formulations were vortexed and put into oven at 60° C. overnight to form a homogeneous solution. For all formulations, the surfactant, water and additives including viscosity reducing agents are expected to be in a single phase.
The shear viscosity at 25 C for each formulations was measured at a shear rate of 1 s^−1 using a TA Instruments AR-G2 rheometer with a concentric cylinder attachment. Shear viscosities are reported in cP.

[3] = SAXS correlation length of the micelles; settings: for Change in correlation length compared to control: control 51 A
Excerpt: Now referring to Table 4, SAXS (Small angle x-ray scattering) was used to characterize the structure of the surfactant aggregates. For these set of samples, the broad peak represents the correlation length (CL) of the micelles and was used to differentiate between the different formulations.
SAXS data was collected with a Bruker NanoSTAR (Bruker AXS Inc., Madison, Wis., U.S.A.) using the micro-focus, Cu x-ray tube, operating at 45 kV, 0.650 mA. The sample to detector distance was 112.050 cm and the detector was Vantec2K 2-dimensional area detector. Samples were placed in 2 mm quartz capillaries, sealed with expoxy resin to prevent evaporation. The sealant is permitted to cure for 2 hours at RT (room temperature) prior to loading into the SAXS sample chamber for data acquisition under vacuum with a data collection time of 1200 s. The data acquisition angular range is 0.3° to 3.0° […], to observe the presence and location of any intensity bands in the x-ray scattering pattern.
Each raw 2-D SAXS data is integrated azimuthally and plotted versus the scattering vector (q), which is expressed as a […] in units of angstroms (1/Å). • The values for q are calculated by the SAXS instrument according to the following equation: […]
Where: 2θ is the scattering angle; and λ is the wavelength used. For each formulation analyzed, the location of each intensity peak on the plot of (Intensity) I vs q is identified and recorded.

[4] = NMR self-diffusion coefficients and specific diffusivity ratio; settings: for Specific diffusivity ratio measured at 4%: diffusion coefficient of the viscosity reducing agent/diffusion coefficient of the surfactant, 4% additive; for Diffusion Coefficient (m^2/s) surfactant at 4% additive: surfactant self-diffusion
Description: Now referring to Table 5, the specified viscosity reducing agents were added to the formula at a level of 4% in absence of other viscosity reducing agents. Diffusion coefficients were determined using a vendor-supplied pulse sequence (“ledbpgq2s”, stimulated echo with bipolar gradients and convection compensation) using a Bruker Avance 700 MHz NMR spectrometer equipped with a Diff-30 high gradient diffusion probe. Gradient pulse durations ranged between 1700-2700 us, with diffusion periods ranging from 50-100 ms. 32 linearly-spaced gradient values were used ranging from 2%-95% of 40 A current, with resulting gradient strengths given by 30 Gauss/cm/A. Data were processed using software written in-house. It is often necessary to fit more than one diffusion coefficient to individual signals. Average diffusion coefficients are reported in these cases. Averages were calculated by averaging the reciprocals of the diffusion coefficients and then taking the reciprocal of that average.
The specific diffusivity ratio is calculated as the ratio of the diffusion coefficient of the viscosity reducing agent/diffusion coefficient of the surfactant.
Two mechanisms of viscosity reduction are hypothesized based on self-diffusion coefficients. This leads to a simple diagnostic measurement to classify perfumes by their mechanism of viscosity reduction. That diagnostic is the ratio of the perfume self-diffusion coefficient to the surfactant self-diffusion coefficient (specific diffusivity ratio). In mechanism 1, the surfactant diffusion coefficient is not reduced, and may be increased, while the perfume diffusion coefficient is faster still. In mechanism 2, the surfactant and perfume diffusion coefficient are reduced to relatively small, nearly equal values. For mechanism 1, the viscosity reducing agent diffuses faster than the surfactant (specific diffusivity ratio>1), whereas for mechanism 2, the viscosity reducing agent diffuses slower than the surfactant (specific diffusivity ratio<1).

| Compound | Kinematic viscosity at 40 C., 2% oil [1] | Kinematic viscosity at 40 C., 4% oil [1] | Kinematic viscosity at 40 C., 6% oil [1] | Kinematic viscosity at 40 C., 8% oil [1] | Lowest viscosity achieved [1] | Shear viscosity [cP] for mixture ([2]; 1.5% Royal Hue) | Shear viscosity [cP] for mixture ([2]; 3.0% Royal Hue) | Correlation length peak [A] ([3]; 2% oil) | Change in correlation length compared to control ([3]; 2% oil) | Correlation length peak [A] ([3]; 4% oil) | Change in correlation length compared to control ([3]; 4% oil) | Specific diffusivity ratio measured at 4% [4] | Diffusion Coefficient (m^2/s) surfactant at 4% additive [4] |
| --- | --- | --- | --- | --- | --- | --- | --- | --- | --- | --- | --- | --- | --- |
| CC(=O)CCc1ccc(O)cc1 [Raspberry Ketone] | 151.9 cSt | 107.4 cSt | 54.0 cSt | 33.0 cSt | 33 cSt | 160 cP | 110 cP | 50 A | −2.0% | 49 A | −3.9% | 5.1364 | 9.5404E−12 m^2/s |
| C=C(C)[C@H]1CC=C(C)CC1 [Limonene] | 366.5 cSt | 166.8 cSt | 97.5 cSt | 86.4 cSt | 86 cSt | 40 cP | 160 cP | 57 A | 11.8% | 62 A | 21.6% | 0.7428 | 2.4338E−12 m^2/s |
| CC1=CCC2CC1C2(C)C (stereo not drawn) [alpha-Pinene] |  |  |  |  |  |  | 207 cP |  |  |  |  |  |  |
| CC12CCC(CC1)C(C)(C)O2 [Eucalyptol] | 527.3 cSt | 292.9 cSt | 203.1 cSt |  | 203 cSt |  | 376 cP |  |  |  |  | 1.5710 | 1.2262E−11 m^2/s |
| CC(CC=O)CCCC(C)(C)O (centres unmarked) [Hydroxycitronellal] | 310.8 cSt | 145.4 cSt | 65.9 cSt | 34.1 cSt | 34 cSt |  | 161 cP |  |  |  |  |  |  |
| CCOC(=O)CC(O)(CC(=O)OCC)C(=O)OCC [Triethyl Citrate] | 269.4 cSt | 136.6 cSt | 66.6 cSt | 40.5 cSt | 41 cSt |  |  | 50 A | −2.0% | 49 A | −3.9% | 3.9850 | 1.0196E−11 m^2/s |
| CC(=O)c1ccccc1 [Acetophenone] |  |  |  |  |  |  | 119 cP |  |  |  |  |  |  |
| CCOC(=O)C1OC1(C)c1ccccc1 (centres unmarked) [Ethyl Methyl Phenyl Glycidate] |  |  |  |  |  |  | 163 cP |  |  |  |  |  |  |
